# Assay results taken from US20240252488A1 (KOREA RESEARCH INSTITUTE OF CHEMICAL TECHNOLOGY, priority 2020, published 2024).
# Legend:
# [1] = system: FADD−/− Jurkat cells; assay: Necroptosis inhibition assay, TNF-α-induced necroptosis (CellTiter-Glo 2.0); assay type: cell-based, human; settings: TNF-α 15 ng/mL; for Necroptosis inhibition assay (Rescue %) 1 μM: compound 1 μM; for Necroptosis inhibition assay (Rescue %) 10 μM: compound 10 μM
# Outline: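 Compound is added to cells at final concentrations of 0.1, 1 and 10 μM and left 30 minutes at room temperature. Necroptosis is induced with 15 ng/mL TNF-α, culture continues 20 to 24 hours at 37° C, and ATP-based luminescence reports viability.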
# [2] = molecular target: T1, MLKL (Homo sapiens, UniProt Q8NB16); assay: Measurement of binding affinity with MLKL receptor (competitive binding assay, Kd); design: made in house; host or cells: HEK 293 cell line (T7 phage in E. coli BL21-derived host is also described)
# T1 sequence (Q8NB16 1-471): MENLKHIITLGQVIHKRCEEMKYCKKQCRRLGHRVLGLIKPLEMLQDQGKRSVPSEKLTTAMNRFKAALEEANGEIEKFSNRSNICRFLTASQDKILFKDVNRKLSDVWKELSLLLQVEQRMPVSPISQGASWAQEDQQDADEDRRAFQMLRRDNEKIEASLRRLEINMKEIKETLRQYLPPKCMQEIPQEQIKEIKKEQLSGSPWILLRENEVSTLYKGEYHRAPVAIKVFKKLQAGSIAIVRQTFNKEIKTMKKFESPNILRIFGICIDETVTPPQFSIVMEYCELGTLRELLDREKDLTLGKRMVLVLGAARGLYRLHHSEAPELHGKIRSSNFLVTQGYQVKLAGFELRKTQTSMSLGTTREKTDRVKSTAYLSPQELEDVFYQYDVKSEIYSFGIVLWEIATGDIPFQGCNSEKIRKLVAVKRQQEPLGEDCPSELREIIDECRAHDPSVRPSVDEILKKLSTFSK
# Outline: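 HEK 293-expressed, DNA-tagged MLKL; ligand beads blocked with biotin and SeaBlock/1% BSA/0.05% Tween 20/1 mM DTT buffer. Cpd from 111× DMSO stock, 0.9% DMSO final. Eluted kinase by qPCR → Kd.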
# [3] = molecular target: T1, MLKL; assay: MLKL degradation assay in HepG2 cell line (western blot); assay type: cell-based; design: endogenous in cells; host or cells: HepG2 or HaCaT; settings: cell line not given; for Degradation assay (Degradation %) 1 μM: compound 1 μM; for Degradation assay (Degradation %) 10 μM: compound 10 μM
# Outline: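 Chemiluminescent western blot signal reports remaining MLKL protein in HepG2 cells after 20-24 h treatment with compound at a final 1 or 10 μM. Equal protein (10-15 μg, BCA) is loaded per lane.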
SMILES,Necroptosis inhibition assay (Rescue %) 1 μM [1] [%],Necroptosis inhibition assay (Rescue %) 10 μM [1] [%],Kd [2] [nM],Degradation assay (Degradation %) 1 μM [3] [%],Degradation assay (Degradation %) 10 μM [3] [%],Necroptosis inhibition assay (Rescue %) 1 μM ([1]; FADD−/− Jurkat cells) [%],Necroptosis inhibition assay (Rescue %) 10 μM ([1]; FADD−/− Jurkat cells) [%]
"Nc1ncc(-c2cnn(C3CCN(C(=O)CC4CCN(C(=O)C5CCN(c6cccc7c6C(=O)N(C6CCC(=O)NC6=O)C7=O)CC5)CC4)CC3)c2)nc1C(=O)O[C@@H](C(=O)Nc1ccc(F)cc1)c1ccccc1 (stereo partly drawn) [TDH-341, (R)-2-((4-fluorophenyl)amino)-2-oxo-1-phenylethyl 3-amino-6-(1-(1-(2-(1-(1-(2-(2,6-dioxopiperidin-3-yl)-1,3-dioxoisoindolin-4-yl)piperidine-4-carbonyl)piperidin-4-yl)acetyl)piperidin-4-yl)-1H-pyrazol-4-yl)pyrazine-2-carboxylate]",38.23,24.8,3.5,70.78,51.56,,
"Nc1ncc(-c2cnn(C3CCN(CCOCCOCCNC(=O)C4CCN(c5cccc6c5C(=O)N(C5CCC(=O)NC5=O)C6=O)CC4)CC3)c2)nc1C(=O)O[C@@H](C(=O)Nc1ccc(F)cc1)c1ccccc1 (stereo partly drawn) [TDH-110, (R)-2-((4-fluorophenyl)amino)-2-oxo-1-phenylethyl 3-amino-6-(1-(1-(2-(2-(2-(1-(2-(2,6-dioxopiperidin-3-yl)-1,3-dioxoisoindolin-4-yl)piperidine-4-carboxamido)ethoxy)ethoxy)ethyl)piperidin-4-yl)-1H-pyrazol-4-yl)pyrazine-2-carboxylate]",55.93,72.8,5.2,9.84,46.89,,
"Nc1ncc(-c2cnn(C3CCN(CC4CCN(CCC5CCN(c6cc7c(cc6F)C(=O)N(C6CCC(=O)NC6=O)C7=O)CC5)CC4)CC3)c2)nc1C(=O)O[C@@H](C(=O)Nc1ccc(F)cc1)c1ccccc1 (stereo partly drawn) [TDH-513, (R)-2-((4-fluorophenyl)amino)-2-oxo-1-phenylethyl 3-amino-6-(1-(1-((1-(2-(1-(2-(2,6-dioxopiperidin-3-yl)-6-fluoro-1,3-dioxoisoindolin-5-yl)piperidin-4-yl)ethyl)piperidin-4-yl)methyl)piperidin-4-yl)-1H-pyrazol-4-yl)pyrazine-2-carboxylate]",,,3.9,46.49,75.71,14.47,−61.68
"Nc1ncc(-c2cnn(C3CCN(CCC4CCN(C(=O)C5CCN(c6cccc7nnn(C8CCC(=O)NC8=O)c(=O)c67)CC5)CC4)CC3)c2)nc1C(=O)OC(C(=O)Nc1ccc(F)cc1)c1ccccc1 (stereo not drawn) [TDH-289, 2-((4-fluorophenyl)amino)-2-oxo-1-phenylethyl 3-amino-6-(1-(1-(2-(1-(1-(3-(2,6-dioxopiperidin-3-yl)-4-oxo-3,4-dihydrobenzo[d][1,2,3]triazin-5-yl)piperidine-4-carbonyl)piperidin-4-yl)ethyl)piperidin-4-yl)-1H-pyrazol-4-yl)pyrazine-2-carboxylate]",67.46,61.24,2.2,66.33,43.03,,
"Nc1ncc(-c2cnn(C3CCN(CCCN4CC5CC4CN5C(=O)CNc4ccc5c(c4)C(=O)N(C4CCC(=O)NC4=O)C5=O)CC3)c2)nc1C(=O)O[C@@H](C(=O)Nc1ccc(F)cc1)c1ccccc1 (stereo partly drawn) [TDH-454, (R)-2-((4-fluorophenyl)amino)-2-oxo-1-phenylethyl 3-amino-6-(1-(1-(3-(5-((2-(2,6-dioxopiperidin-3-yl)-1,3-dioxoisoindolin-5-yl)glycyl)-2,5-diazabicyclo[2.2.1]heptan-2-yl)propyl)piperidin-4-yl)-1H-pyrazol-4-yl)pyrazine-2-carboxylate]",,,2,87.16,90.47,65.44,39.99
"Nc1ncc(-c2cnn(C3CCN(CC4CCN(C(=O)C5CCN(c6ccc7c(c6)C(=O)N(C6CCC(=O)NC6=O)C7=O)CC5)CC4)CC3)c2)nc1C(=O)O[C@@H](C(=O)Nc1ccc(F)cc1)c1ccccc1 (stereo partly drawn) [TDH-147, (R)-2-((4-fluorophenyl)amino)-2-oxo-1-phenylethyl 3-amino-6-(1-(1-((1-(1-(2-(2,6-dioxopiperidin-3-yl)-1,3-dioxoisoindolin-5-yl)piperidine-4-carbonyl)piperidin-4-yl)methyl)piperidin-4-yl)-1H-pyrazol-4-yl)pyrazine-2-carboxylate]",84.3,45.37,24,38.91,60.57,,
"Nc1ncc(-c2cnn(C3CCN(CCC4CCN(c5cccc6nnn(C7CCC(=O)NC7=O)c(=O)c56)CC4)CC3)c2)nc1C(=O)OC(C(=O)Nc1ccc(F)cc1)c1ccccc1 (stereo not drawn) [TDH-294, 2-((4-fluorophenyl)amino)-2-oxo-1-phenylethyl 3-amino-6-(1-(1-(2-(1-(3-(2,6-dioxopiperidin-3-yl)-4-oxo-3,4-dihydrobenzo[d][1,2,3]triazin-5-yl)piperidin-4-yl)ethyl)piperidin-4-yl)-1H-pyrazol-4-yl)pyrazine-2-carboxylate]",67.12,33.24,4.7,25.53,23.63,,
"Nc1ncc(-c2cnn(C3CCN(CC4CCN(CC(=O)NCCCNc5cccc6c5C(=O)N(C5CCC(=O)NC5=O)C6=O)CC4)CC3)c2)nc1C(=O)OC(C(=O)Nc1ccc(F)cc1)c1ccccc1 (stereo not drawn) [TDH-235, 2-((4-fluorophenyl)amino)-2-oxo-1-phenylethyl 3-amino-6-(1-(1-((1-(2-((3-((2-(2,6-dioxopiperidin-3-yl)-1,3-dioxoisoindolin-4-yl)amino)propyl)amino)-2-oxoethyl)piperidin-4-yl)methyl)piperidin-4-yl)-1H-pyrazol-4-yl)pyrazine-2-carboxylate]",7.64,19.27,8.5,45.01,49.89,,
"Nc1ncc(-c2cnn([C@@H]3CCN(CC4CCN(C(=O)CNc5cccc6c5C(=O)N(C5CCC(=O)NC5=O)C6=O)CC4)C3)c2)nc1C(=O)OC(C(=O)Nc1ccc(F)cc1)c1ccccc1 (stereo partly drawn) [TDH-285, 2-((4-fluorophenyl)amino)-2-oxo-1-phenylethyl 3-amino-6-(1-((3R)-1-((1-((2-(2,6-dioxopiperidin-3-yl)-1,3-dioxoisoindolin-4-yl)glycyl)piperidin-4-yl)methyl)pyrrolidin-3-yl)-1H-pyrazol-4-yl)pyrazine-2-carboxylate]",36.72,40.43,13,56.55,50.66,,
"Nc1ncc(-c2cnn(C3CCN(CCC4CCN(C(=O)CCc5ccc6c(c5)CN(C5CCC(=O)NC5=O)C6=O)CC4)CC3)c2)nc1C(=O)O[C@@H](C(=O)Nc1ccc(F)cc1)c1ccccc1 (stereo partly drawn) [TDH-475, (R)-2-((4-fluorophenyl)amino)-2-oxo-1-phenylethyl 3-amino-6-(1-(1-(2-(1-(3-(2-(2,6-dioxopiperidin-3-yl)-1-oxoisoindolin-5-yl)propanoyl)piperidin-4-yl)ethyl)piperidin-4-yl)-1H-pyrazol-4-yl)pyrazine-2-carboxylate]",,,0.34,81.77,60.49,31.75,7.21
"Nc1ncc(-c2cnn(C3CCN(CCOCCNC(=O)COc4ccc5c(c4)C(=O)N(C4CCC(=O)NC4=O)C5=O)CC3)c2)nc1C(=O)O[C@@H](C(=O)Nc1ccc(F)cc1)c1ccccc1 (stereo partly drawn) [TDH-168, (R)-2-((4-fluorophenyl)amino)-2-oxo-1-phenylethyl 3-amino-6-(1-(1-(2-(2-(2-((2-(2,6-dioxopiperidin-3-yl)-1,3-dioxoisoindolin-5-yl)oxy)acetamido)ethoxy)ethyl)piperidin-4-yl)-1H-pyrazol-4-yl)pyrazine-2-carboxylate]",31.24,40.55,7.1,,24.52,,
